In PubChem BioAssay AID2060491 (Molecular Pharmacology Branch, DTP, NCI, 2025):
Several values for one entry are separate records, joined by “and”; a condition that tells them apart may be missing. Equal values may be shown once.

Test system: 857933-349-R-J2-PDC complex spheroids, viability
Test: Anticancer human tumor 857933-349-R-J2-PDC patient-derived colon adenocarcinoma cell line growth inhibition [GQUAD]
Conditions: for viability, T/C: stronger effect = lower value
Excerpt: DNA G-quadruplex Stabilizer Agents in Combinations in Complex Spheroids
A high-throughput screen of multi-cell type tumor spheroids was designed to identify active combinations of DNA G-quadruplex stabilizer agents and targeted small molecules. Complex spheroids include a stromal component modeled by human endothelial cells (HUVEC) and fibroblasts modeled by human mesenchymal stem cells (MSCs). The concentration ranges selected for each drug and investigational agent were based upon clinically achievable concentrations if the clinical Cmax of the agent was known.
Compounds. The drugs and investigational agents: pidnarulex (CX-5461; NSC782164), APTO-253 (NSC789042), BRACO-19 (NSC847499), peposertib (NSC802822), ceralasertib (NSC780249), elimusertib (NSC800525), camonsertib (NSC841442), AZD-1390 (NSC803789), olaparib (NSC753686), talazoparib (NSC767125), ART-558 (NSC835418), sotorasib (NSC818433), MRTX-1133 (NSC836407), SN-38 (NSC673596), topotecan (NSC609699), etoposide (NSC141540), doxorubicin (NSC123127), gemcitabine (NSC613327), 5-fluorouracil (NSC19893), paclitaxel (NSC125973), vemurafenib (NSC761431), panobinostat (NSC761190), R-306465 (JNJ-16241199; NSC773264), adavosertib (NSC754352), TP-3654 (NSC805149), carboplatin (NSC241240), KSQ-4279 (NSC840948), and staurosporine (NSC755774) were obtained from the National Cancer Institute (NCI) Developmental Therapeutics Program Chemical Repository (34). The FDA-approved anticancer drug set is available from the NCI Developmental Therapeutics Program. […] The stock solutions were prepared in dimethyl sulfoxide (DMSO, Sigma-Aldrich, St. Louis, MO, cat. D2650) at 800-fold the tested concentration and stored at -70 degrees C prior to their use. All drugs and investigational agents were tested over a range starting from a high concentration at or near the clinical Cmax and decreasing in half-log increments. If the clinical Cmax for an agent had not been determined, the highest concentration tested was 10 microM.
2.3 Cell Culture. All cells were maintained in an incubator at 37 degrees C and 5% CO2 with 95% humidity. The PDC lines were cultured according to standard operating procedures established by the NCI PDMR. All PDCs were thawed and cultured in Matrigel-coated flasks prepared with a working solution of 1X Ham's F-12 nutrient mix, without supplementation (Invitrogen, cat. 11765054), 100 U/mL penicillin-streptomycin (Invitrogen, cat. 15140122), and 2.5% Matrigel (Corning Inc., cat. 354248) for the first three passages. The 857933-349-R-J2-PDC line was cultured in 6C/Colon 1B media, which includes advanced DMEM/F-12 (Thermo Fisher Scientific, cat. 12634028), 10 mM HEPES (Thermo Fisher Scientific, cat. 15630080), 1X GlutaMAX supplement (Thermo Fisher Scientific, cat. 35050061), 0.1 mg/mL primocin (InvivoGen, cat. ant-pm-2), 10% defined fetal bovine serum, heat inactivated (HyClone Laboratories Inc., cat. SH30070.03HI), 50% L-WRN conditioned media (ATCC, cat. CRL-3276), 1.25 mM N-Acetyl-L-cysteine (Sigma-Aldrich, cat. A9165), 10 mM nicotinamide (Sigma-Aldrich, cat. N0636), 1X B-27 supplement (Thermo Fisher Scientific, cat. 17504044), 1X N-2 supplement (Thermo Fisher Scientific, cat. 17502048), 10 microM Y-27632 dihydrochloride (Tocris Bioscience, cat. 1254), and 50 ng/mL human EGF recombinant protein (Thermo Fisher Scientific, cat. PHG0311). The 485176-168-R4-J1-PDC line was cultured in Panc media, which includes all 6C/Colon 1B media components plus 100 ng/mL human FGF-10 (Thermo Fisher Scientific, cat. 100-26), 500 nM SB-431542 (Selleckchem, cat. S1067), and gastrin (Tocris, cat. 3006).
[…]
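Also: spheroids exposed to compounds for one week before readout.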
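For viability, T/C in this document: percent viability relative to vehicle DMSO wells taken as 100%.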

SMILES: Cn1ncnc1[C@H]1c2n[nH]c(=O)c3cc(F)cc(c23)N[C@@H]1c1ccc(F)cc1 + Cc1[nH]c2ccc(F)cc2c1-c1nc2c3cccnc3c3ncccc3c2[nH]1
- IC50 (curve of first compound, second compound 0.0316 µM): > 0.316 µM
- IC50 (curve of first compound, second compound 0.1 µM): > 0.316 µM
- IC50 (curve of first compound, second compound 0.316 µM): > 0.316 µM
- IC50 (curve of first compound, second compound 1 µM): > 0.316 µM
- IC50 (curve of first compound, second compound 3.16 µM): > 0.316 µM
- IC50 (curve of first compound, second compound 10 µM): > 0.316 µM
- viability, T/C (second compound 0.0316 µM, first compound 0.000999 µM): 104%
- viability, T/C (second compound 0.0316 µM, first compound 0.00316 µM): 86%
- viability, T/C (second compound 0.0316 µM, first compound 0.00999 µM): 103%
- viability, T/C (second compound 0.0316 µM, first compound 0.0316 µM): 89.7%
- viability, T/C (second compound 0.0316 µM, first compound 0.0999 µM): 106%
- viability, T/C (second compound 0.0316 µM, first compound 0.316 µM): 109%
- viability, T/C (second compound 0.1 µM, first compound 0.000999 µM): 95.8%
- viability, T/C (second compound 0.1 µM, first compound 0.00316 µM): 105%
- viability, T/C (second compound 0.1 µM, first compound 0.00999 µM): 98%
- viability, T/C (second compound 0.1 µM, first compound 0.0316 µM): 92.7%
- viability, T/C (second compound 0.1 µM, first compound 0.0999 µM): 102%
- viability, T/C (second compound 0.1 µM, first compound 0.316 µM): 104%
- viability, T/C (second compound 0.316 µM, first compound 0.000999 µM): 97.3%
- viability, T/C (second compound 0.316 µM, first compound 0.00316 µM): 112%
- viability, T/C (second compound 0.316 µM, first compound 0.00999 µM): 97%
- viability, T/C (second compound 0.316 µM, first compound 0.0316 µM): 104%
- viability, T/C (second compound 0.316 µM, first compound 0.0999 µM): 102%
- viability, T/C (second compound 0.316 µM, first compound 0.316 µM): 98.6%
- viability, T/C (second compound 1 µM, first compound 0.000999 µM): 96.1%
- viability, T/C (second compound 1 µM, first compound 0.00316 µM): 101%
- viability, T/C (second compound 1 µM, first compound 0.00999 µM): 97.4%
- viability, T/C (second compound 1 µM, first compound 0.0316 µM): 95.8%
- viability, T/C (second compound 1 µM, first compound 0.0999 µM): 104%
- viability, T/C (second compound 1 µM, first compound 0.316 µM): 94.8%
- viability, T/C (second compound 3.16 µM, first compound 0.000999 µM): 92.2%
- viability, T/C (second compound 3.16 µM, first compound 0.00316 µM): 101%
- viability, T/C (second compound 3.16 µM, first compound 0.00999 µM): 91.9%
- viability, T/C (second compound 3.16 µM, first compound 0.0316 µM): 103%
- viability, T/C (second compound 3.16 µM, first compound 0.0999 µM): 114%
- viability, T/C (second compound 3.16 µM, first compound 0.316 µM): 96.9%
- viability, T/C (second compound 10 µM, first compound 0.000999 µM): 102%
- viability, T/C (second compound 10 µM, first compound 0.00316 µM): 99.3%
- viability, T/C (second compound 10 µM, first compound 0.00999 µM): 97.1%
- viability, T/C (second compound 10 µM, first compound 0.0316 µM): 99.2%
- viability, T/C (second compound 10 µM, first compound 0.0999 µM): 104%
- viability, T/C (second compound 10 µM, first compound 0.316 µM): 94.6%

SMILES: CC(C)(O)C1CCC(Nc2ccc3ncc(-c4cccc(C(F)(F)F)c4)n3n2)CC1 (stereo unspecified)
- viability, T/C (compound 0.0316 µM): 106% and 103% and 98.1%
- viability, T/C (compound 0.1 µM): 94% and 102% and 87.3%
- viability, T/C (compound 0.316 µM): 89% and 96.2% and 80.1%
- viability, T/C (compound 1 µM): 36.2% and 39.3% and 10.5%
- viability, T/C (compound 3.16 µM): 2.72% and 3.1% and 0.35%
- viability, T/C (compound 10 µM): 2.99% and 3.23% and 0.57%
- IC50 (curve of compound): 0.734 µM and 0.803 µM and 0.519 µM

SMILES: Cc1cccc(N(C)C(=O)C2C(O)CCN2c2nc(C)cc(C(F)(F)F)c2C#N)c1 (stereo unspecified)
- viability, T/C (compound 0.0316 µM): 104% and 102% and 105%
- viability, T/C (compound 0.1 µM): 93.1% and 96.1% and 98.8%
- viability, T/C (compound 0.316 µM): 107% and 103% and 101%
- viability, T/C (compound 1 µM): 91.1% and 105% and 94.8%
- viability, T/C (compound 3.16 µM): 114% and 105% and 106%
- viability, T/C (compound 10 µM): 91.3% and 104% and 91.7%
- IC50 (curve of compound): > 10 µM

SMILES: C#Cc1c(F)ccc2cc(O)cc(-c3ncc4c(N5CC6CCC(C5)N6)nc(OCC56CCCN5CC(F)C6)nc4c3F)c12 (stereo unspecified)
- viability, T/C (compound 0.0316 µM): 94.6% and 101% and 111%
- viability, T/C (compound 0.1 µM): 93.3% and 94.7% and 99.7%
- viability, T/C (compound 0.316 µM): 93.6% and 91.5% and 99.1%
- viability, T/C (compound 1 µM): 69.2% and 83.1% and 96.8%
- viability, T/C (compound 3.16 µM): 75.5% and 70.2% and 97.1%
- viability, T/C (compound 10 µM): 70% and 66.5% and 97.9%
- IC50 (curve of compound): > 10 µM

SMILES: COc1cc(C2c3cc4c(cc3C(OC3OC5COC(C)OC5C(O)C3O)C3COC(=O)C23)OCO4)cc(OC)c1O (stereo unspecified)
- viability, T/C (compound 0.0316 µM): 86.8% and 82.9% and 104%
- viability, T/C (compound 0.1 µM): 53.1% and 58.3% and 93.6%
- viability, T/C (compound 0.316 µM): 55.8% and 48.1% and 82.6%
- viability, T/C (compound 1 µM): 48.6% and 52.9% and 78.4%
- viability, T/C (compound 3.16 µM): 42.6% and 39.1% and 59.5%
- viability, T/C (compound 10 µM): 27.6% and 27.1% and 41.6%

SMILES: CC(C)n1c(=O)n(C)c2cnc3cc(F)c(-c4ccc(OCCCN5CCCCC5)nc4)cc3c21
- viability, T/C (compound 0.0316 µM): 105% and 109% (2×)
- viability, T/C (compound 0.1 µM): 101% and 106% and 90.6%
- viability, T/C (compound 0.316 µM): 104% and 109% and 108%
- viability, T/C (compound 1 µM): 98.6% and 103% and 99.5%
- viability, T/C (compound 3.16 µM): 104% and 110% and 107%
- viability, T/C (compound 10 µM): 78.2% and 107% and 72.4%
- IC50 (curve of compound): > 10 µM
